Data: publication PMC8949075, “Evaluation of Two Novel Hydantoin Derivatives Using Reconstructed Human Skin Model Episkin^TM: Perspectives for Application as Potential Sunscreen Agents” (Molecules, 2022)

Tests used:
[1] = set-up: method as in PMID 31238526; conditions: cited from earlier work
[2] = system: selected human skin cells; set-up: method as in PMID 31238526; conditions: cited from earlier work
[3] = system: Episkin^TM reconstructed human epidermis; experiment: Episkin skin irritation test (MTT viability, Il-1α release; OECD 439); conditions: for Il-1α release: 26 mg/cm^2 topical, 15 min exposure, 42 h post-incubation; for skin irritation classification: 50% viability cut-off (OECD prediction model)
Source text: (§2) The Episkin^TM model (aged 13 days, large/1.07 cm^2 surface area) was provided by Episkin (Lyon, France). The Episkin^TM kit consists of 12 reconstructed epidermis units made of type I collagen matrix, representing the dermis, surfaced with a film of type IV collagen, upon which is laid a stratified and differentiated epidermis derived from human keratinocytes [17]. Upon receipt of the tissues, the culture inserts were removed from the agarose-nutrient solution and transferred into 12-well plates containing 2 mL of the maintenance medium (MM) per well. The MM was provided by the manufacturer. Tissues were then incubated for 24 h at 37 °C in a humidified atmosphere of 5% CO2 before use in the permeation, irritation, or phototoxicity experiments.
(§3) Prior to the irritation experiments, the Episkin^TM inserts were washed with sterile PBS to remove traces of the MM and transferred into new 12-well plates containing 2 mL of fresh MM. […] Sodium dodecyl sulphate (SDS; Sigma-Aldrich, Darmstadt, Germany) (5% in water) and PBS were used as positive and negative controls, respectively. Both controls were applied topically (26 mg/cm^2). Samples were tested in two independent experiments using three tissues for each chemical, positive, or negative control.
(§4) Then, the tissues were placed in new 12-well plates containing 2 mL of the MM per well and incubated for an additional 42 h at 37 °C in a humidified atmosphere of 5% CO2 as post-treatment incubation time. At the end of this period, the culture media of each tissue were collected and stored at −20 °C for Il-1α measurement.
(§5) The cell viability was assessed by a subsequent incubation of the tissues for 3 h with freshly prepared 3-(4,5-dimethylthiazol-2-yl)-2,5-diphenyltetrazolium bromide (MTT; Sigma-Aldrich, Darmstadt, Germany) solution (0.3 mg/mL in assay medium (AM)) in a 12-well plate. Then, a biopsy of the epidermis was done using a puncher (Episkin, Lyon, France), and the precipitated formazan was extracted using 500 µL of acidified isopropanol (Chempur, Piekary Śląskie, Poland) (0.04 N HCl in isopropanol) for 48 h (4 °C). At the end of the extraction period, 200 µL of each sample were transferred to 96-well plates for absorbance measurements at 570 nm (A570) [70, 71, 72, 73]. […] Viability (percent of control) was determined by dividing A570 of experimental wells by A570 of control wells × 100%. The test substance was considered as an irritant when mean tissue viability was equal or less than 50% [16, 17].
(§6) Il-1α measurement was conducted by a classic enzyme-linked immunosorbent assay (ELISA) technique (Cayman Chemical, Ann Arbor, MI, USA). Firstly, 100 µL of the samples were added into a 96-well ready to use microtiter plate (precoated with a monoclonal antibody specific for Il-1α (Il-1α capture antibody). Secondly, 100 µL of an acetylcholinesterase:Fab’ Conjugate (AChE:Fab’) was added to each well. The plate was covered with plastic film and incubated overnight at 4 °C. At the end of the incubation period the contents of each well were removed and rinsed five times with wash buffer. Next, 200 µL of Ellman’s reagent (containing the substrate for AChE) was added to each well, the plate was covered with plastic film and developed in the dark using an orbital shaker. The absorbance of the wells was measured at 410 nm. Il-1α concentrations were then calculated using the standard curve.

[4] = Incubation in buffer (pH 7.4) without HLMs (spontaneous hydrolysis control); assay type: physicochemical; conditions: buffer pH = 7.4, no HLMs, 30 min, 37 °C
Method: (§1) Supernatant analysis was performed using UHPLC/MS (Waters Corporation, Milford, MA, USA). Two control samples were prepared with each incubation set. The first, a mixture of a test compound and potassium phosphate buffer, and without the addition of HLMs nor the NADPH-regenerating system, was used to exclude the possibility of hydrolysis facilitated by the buffer solution. The second, a mixture of a test compound, potassium phosphate buffer and HLMs, but without the NADPH-regenerating system solution, was designed to evaluate the production of metabolites in the presence of enzymes but the absence of NADPH [14, 82]. The assays were repeated two times. The in vitro half time (t1/2) for JH3 was established from the slope of the linear regression of ln percent parent compound remaining against incubation time. Intrinsic clearance (Clint) was obtained from the equation: Clint = (volume of incubation [µL] (i.e., 250 µL)/protein in the incubation [mg] (i.e., 0.2 mg)) × 0.693/t1/2 [83, 84, 85].

[5] = set-up: method as in PMID 31238526; conditions: 2% (w/w) macrogol formulations; cited from earlier work
[6] = system: Episkin^TM reconstructed human epidermis; experiment: Episkin phototoxicity test (UVA 50 J/cm^2; MTT viability, Il-1α release); assay type: cell-based; conditions: 0.5 and 1 mM; for phototoxic potential / viability of irradiated epidermis: UVA 50 J/cm^2; for tissue viability without UVA exposure: non-irradiated
Method: The MM was provided by the manufacturer.
Compounds JH3 and JH10 (final concentrations of 0.5 and 1 mM) solubilized in ethanol (final concentration of 1% in water) were applied topically on the tissue surface. Chlorpromazine (CPZ, chlorpromazine hydrochloride, C17H19ClN2S·HCl, CAS number: 69-09-0, molecular weight: […], purity: meets USP testing specifications, Sigma-Aldrich, Darmstadt, Germany) (final concentration of 0.5 mM, based on literature data) was used as a positive control, whereas solvent alone served as a negative control.
Duplicate plates were prepared for UVA and dark (controls) exposure purposes. After the treatment period of 2 h, the excess test compound was removed from each well, and the tissues were exposed to UVA at a non-cytotoxic dose of 50 J/cm^2 ([…] at 250 W/m^2) with a solar light simulator equipped with a window glass filter and ID65 filter (Suntest CPS+, Atlas, Linsengericht, Germany). The emitted spectrum contained both UV and visible outputs with a UV cut-on of approx. 320 nm and corresponded to ID65 per ISO 10,977 [74]. The irradiance level between 320 and 400 nm was approximated by the following equation: W/m^2 (320–400 nm) = W/m^2 (300–800 nm) ÷ 11.5. In parallel, the non-irradiated treated tissues were placed in the dark under the same conditions. […] Next, cell viability was assessed using an MTT conversion test and the culture media aliquots were kept frozen (−20 °C) for Il-1α measurement (see 2.3.2. The Episkin^TM skin irritation test method section).

in vitro = conditions: human, 26 mg/cm^2
Source text: as §2, §3, §4, §5, §6

[7] = In vitro microsomal biotransformation; assay type: in vitro ADME, human; conditions: for t1/2 (in vitro half time): HLMs 0.8 mg/mL; for t1/2 (in vitro half time) / microsomal CLint at 20 µM / half-life at 20 µM: 20 µM, 37 °C; for Biotransformation (main metabolite M, ΔM −28): in the absence or presence of NADPH; for microsomal CLint at 20 µM / half-life at 20 µM: human, liver microsomes, pH 7.4, HLMs 0.8 mg/mL; for microsomal CLint at 20 µM: read-out: Clint (intrinsic clearance); for half-life at 20 µM: read-out: t1/2 (in vitro half time)
Method: The microsome incubation procedure was adapted from the previous studies. Reaction mixtures comprising the test compound JH3 or JH10 (20 µM in methanol), human liver microsomes (HLMs; Sigma Aldrich, Darmstadt, Germany) (0.8 mg/mL), and 100 mM potassium phosphate buffer (pH 7.4) were preincubated before the addition of NADPH-regenerating system (NADP, glucose-6-phosphate and glucose-6-phosphate dehydrogenase in potassium phosphate buffer). The NADPH-regenerating system and buffer components were obtained from Sigma-Aldrich (Darmstadt, Germany). Incubation was conducted for different time points (i.e., 5, 15, and 30 min) with temperature set at 37 °C. The reaction was quenched with ice-cold methanol, followed by the addition of internal standard (IS)–PTX (20 µM). The mixture was then centrifuged.
as §1

[8] = CHO-K1 cytotoxicity assay (MTT); assay type: cell-based; conditions: Chinese hamster, concentrations ranging from 1 to 10 µM, read-out: viability of cells
Method: The Chinese hamster ovary CHO-K1 cell line was obtained from the American Type Culture Collection (ATCC CCL-61). The CHO-K1 cell line was cultured in a humidified incubator at 37 °C with 5% CO2, in F-12K Medium (Kaighn’s Modification of Ham’s F-12 Medium) (ATCC) supplemented with 10% fetal bovine serum (FBS; Gibco, Waltham, MA, USA) and antibiotics (1% streptomycin/penicillin salts mixture, Sigma–Aldrich, Darmstadt, Germany).
The cells were seeded at a density of 6 × 10^3 on 96-well plates. […] Test compounds and 4MBC were dissolved in DMSO (solvent, final concentration 0.1%) and ethanol (co-solvent, final concentration 1%). At the end of the incubation period, 10 µL of MTT reagent was added to each well. After 4 h incubation (37 °C, 5% CO2), the medium was discarded, and the formazan produced in the cells appeared as dark crystals in the bottom of the wells. Next, pure DMSO was added to each well. The optical density data of converted dye was measured at 570 nm (A570) on microplate reader. […] The experiment was conducted two times with three repetitions for each condition.

Structure (SMILES): CCOC(=O)CN1C(=O)/C(=C/C=C/c2ccc(OC)cc2)N(CC(=O)OCC)C1=O [JH3, diethyl 2,2′-((Z)-4-((E)-3-(4-methoxyphenyl)allylidene)-2,5-dioxoimidazolidine-1,3-diyl)diacetate]
- photostability [1]: photostable
- cytotoxicity [2]: no cytotoxicity
- Il-1α release [3]: no significant increase
- skin irritation classification [3]: non-irritants
- spontaneous hydrolysis in buffer [4]: no signs of spontaneous hydrolysis
- SPFin vitro (sun protection factor) [5]: 1.68 ± 0.04
- UVA PF [5]: 6.83 ± 0.05
- UVA/UVB Ratio [5]: 4.50 ± 0.32
- λc [5]: 391 nm
- phototoxic potential [6]: absence of phototoxic potential
- viability of irradiated epidermis [6]: no significant difference
- tissue viability without UVA exposure [6]: no changes in tissue viability
- viability at 15 min (in vitro): ≥ 50%
- t1/2 (in vitro half time) [7]: 5 - min
- parent compound remaining ([7]; HLMs, 15 min time point): Approximately 5%
- Biotransformation (main metabolite M, ΔM −28) ([7]; HLMs): - Hydrolysis
- microsomal CLint at 20 µM [7]: > 172 µL/min/mg
- half-life at 20 µM [7]: ~5 min
- viability at 24 h [8]: > 75%

Structure (SMILES): CCOC(=O)CN1C(=O)/C(=C/c2ccc(OC)cc2)N(CC(=O)OCC)C1=O [JH10, diethyl 2,2′-((Z)-4-(4-methoxybenzylidene)-2,5-dioxoimidazolidine-1,3-diyl)diacetate]
- photostability [1]: photostable
- cytotoxicity [2]: no cytotoxicity
- Il-1α release [3]: no significant increase
- skin irritation classification [3]: non-irritants
- spontaneous hydrolysis in buffer [4]: no signs of spontaneous hydrolysis
- SPFin vitro (sun protection factor) [5]: 3.07 ± 0.04
- UVA PF [5]: 2.59 ± 0.23
- UVA/UVB Ratio [5]: 0.84 ± 0.08
- λc [5]: 366 nm
- phototoxic potential [6]: absence of phototoxic potential
- viability of irradiated epidermis [6]: no significant difference
- tissue viability without UVA exposure [6]: no changes in tissue viability
- viability at 15 min (in vitro): ≥ 50%
- t1/2 (in vitro half time) [7]: <<5 - min
- parent compound detected ([7]; HLMs, 5 min time point): less than 0.5%
- Biotransformation (main metabolite M, ΔM −28) ([7]; HLMs): - Hydrolysis
- microsomal CLint at 20 µM [7]: > 172 µL/min/mg
- half-life at 20 µM [7]: ~5 min
- viability at 24 h [8]: > 75%
